For one assay, the target named is Focal adhesion kinase 1 (Homo sapiens, UniProt Q05397). The assay is described as follows: Inhibition of recombinant human FAK using poly(Glu,Tyr)4:1 as substrate.
For assay [1], the target named is Serine/threonine-protein kinase N1 (Homo sapiens, UniProt Q16512). The assay is described as follows: Inhibition of recombinant human PRK1.
The next assay concerns the target Aurora kinase B (Homo sapiens, UniProt Q96GD4). The assay is described as follows: Inhibition of recombinant human Aurora-B using tetra(LRRWLSG) as substrate.
The target in assay [2] is ALK tyrosine kinase receptor (Homo sapiens, UniProt Q9UM73). The assay is described as follows: Inhibition of recombinant human ALK.
For assay [3], the target named is Serine/threonine-protein kinase pim-1 (Homo sapiens, UniProt P11309). The assay is described as follows: Inhibition of recombinant human PIM1.
Chain of Serine/threonine-protein kinase pim-1 (P11309 whole entry): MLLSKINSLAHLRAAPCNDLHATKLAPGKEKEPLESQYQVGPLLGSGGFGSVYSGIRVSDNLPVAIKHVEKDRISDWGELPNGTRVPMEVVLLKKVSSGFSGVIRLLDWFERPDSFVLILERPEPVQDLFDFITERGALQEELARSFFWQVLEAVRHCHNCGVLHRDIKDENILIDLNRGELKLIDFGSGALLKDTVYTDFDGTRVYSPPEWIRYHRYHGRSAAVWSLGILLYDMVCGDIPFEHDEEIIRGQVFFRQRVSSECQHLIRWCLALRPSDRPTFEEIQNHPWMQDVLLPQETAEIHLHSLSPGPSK
Assay [4] addresses Insulin-like growth factor 1 receptor (Homo sapiens, UniProt P08069). The assay is described as follows: Inhibition of recombinant human IGF1-R using poly(Glu,Tyr)4:1 as substrate.
Assay [5] concerns the target Hepatocyte growth factor receptor (Homo sapiens, UniProt P08581). The assay is described as follows: Inhibition of wild type human MET using poly(Ala,Glu,Lys,Tyr) as substrate.
The target in assay [6] is T1, NUAK family SNF1-like kinase 1 (Homo sapiens, UniProt O60285).
T1 sequence (O60285 whole entry): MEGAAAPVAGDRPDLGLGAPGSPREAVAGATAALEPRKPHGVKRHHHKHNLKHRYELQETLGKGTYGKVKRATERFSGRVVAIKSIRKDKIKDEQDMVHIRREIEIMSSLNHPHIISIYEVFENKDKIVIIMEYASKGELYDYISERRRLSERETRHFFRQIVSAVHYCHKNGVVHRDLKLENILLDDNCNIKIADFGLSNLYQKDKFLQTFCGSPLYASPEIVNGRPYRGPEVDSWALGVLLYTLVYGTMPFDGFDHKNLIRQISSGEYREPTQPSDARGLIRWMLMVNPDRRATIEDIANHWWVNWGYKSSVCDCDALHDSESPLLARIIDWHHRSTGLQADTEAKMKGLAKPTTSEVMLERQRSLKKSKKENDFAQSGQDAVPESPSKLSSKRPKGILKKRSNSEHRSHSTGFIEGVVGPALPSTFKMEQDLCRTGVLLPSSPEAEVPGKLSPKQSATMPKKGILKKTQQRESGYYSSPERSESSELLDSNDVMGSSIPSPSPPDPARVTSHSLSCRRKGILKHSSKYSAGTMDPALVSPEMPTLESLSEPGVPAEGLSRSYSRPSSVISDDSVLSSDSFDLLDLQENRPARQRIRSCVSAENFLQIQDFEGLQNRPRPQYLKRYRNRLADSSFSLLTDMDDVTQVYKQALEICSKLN
The assay is described as follows: Inhibition of recombinant human ARK5.

Assay [7] addresses RAC-alpha serine/threonine-protein kinase (Homo sapiens, UniProt P31749). The assay is described as follows: Inhibition of recombinant human AKT1 using GSK3 (amino acids 14 to 27) as substrate.
Assay [8] concerns the target T2, Serine/threonine-protein kinase Nek2 (Homo sapiens, UniProt P51955).
T2 sequence (P51955 whole entry): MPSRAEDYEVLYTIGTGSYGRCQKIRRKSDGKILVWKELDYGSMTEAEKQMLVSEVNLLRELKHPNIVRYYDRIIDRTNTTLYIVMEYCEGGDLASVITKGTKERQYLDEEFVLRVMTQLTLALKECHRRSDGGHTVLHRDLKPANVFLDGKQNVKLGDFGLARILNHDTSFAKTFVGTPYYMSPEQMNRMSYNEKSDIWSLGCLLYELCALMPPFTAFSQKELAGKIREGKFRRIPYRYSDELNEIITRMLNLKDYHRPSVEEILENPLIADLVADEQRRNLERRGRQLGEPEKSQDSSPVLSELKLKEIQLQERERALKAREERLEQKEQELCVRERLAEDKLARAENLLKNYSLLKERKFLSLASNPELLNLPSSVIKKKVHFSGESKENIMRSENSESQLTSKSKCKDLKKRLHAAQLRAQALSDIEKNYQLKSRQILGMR
The assay is described as follows: Inhibition of recombinant human NEK2.

In assay [9] the target is Proto-oncogene tyrosine-protein kinase Src (Homo sapiens, UniProt P12931). The assay is described as follows: Inhibition of recombinant human SRC using poly(Glu,Tyr)4:1 as substrate.
Assay [10] addresses Serine/threonine-protein kinase PLK1 (Homo sapiens, UniProt P53350). The assay is described as follows: Inhibition of recombinant human PLK1 using casein as substrate.
For assay [11], the target named is Vascular endothelial growth factor receptor 2 (Homo sapiens, UniProt P35968). The assay is described as follows: Inhibition of recombinant human VEGF-R2 using poly(Glu,Tyr)4:1 as substrate.
The target of assay [12] is T3, Tyrosine-protein kinase receptor UFO (Homo sapiens, UniProt P30530).
T3 sequence (P30530 whole entry): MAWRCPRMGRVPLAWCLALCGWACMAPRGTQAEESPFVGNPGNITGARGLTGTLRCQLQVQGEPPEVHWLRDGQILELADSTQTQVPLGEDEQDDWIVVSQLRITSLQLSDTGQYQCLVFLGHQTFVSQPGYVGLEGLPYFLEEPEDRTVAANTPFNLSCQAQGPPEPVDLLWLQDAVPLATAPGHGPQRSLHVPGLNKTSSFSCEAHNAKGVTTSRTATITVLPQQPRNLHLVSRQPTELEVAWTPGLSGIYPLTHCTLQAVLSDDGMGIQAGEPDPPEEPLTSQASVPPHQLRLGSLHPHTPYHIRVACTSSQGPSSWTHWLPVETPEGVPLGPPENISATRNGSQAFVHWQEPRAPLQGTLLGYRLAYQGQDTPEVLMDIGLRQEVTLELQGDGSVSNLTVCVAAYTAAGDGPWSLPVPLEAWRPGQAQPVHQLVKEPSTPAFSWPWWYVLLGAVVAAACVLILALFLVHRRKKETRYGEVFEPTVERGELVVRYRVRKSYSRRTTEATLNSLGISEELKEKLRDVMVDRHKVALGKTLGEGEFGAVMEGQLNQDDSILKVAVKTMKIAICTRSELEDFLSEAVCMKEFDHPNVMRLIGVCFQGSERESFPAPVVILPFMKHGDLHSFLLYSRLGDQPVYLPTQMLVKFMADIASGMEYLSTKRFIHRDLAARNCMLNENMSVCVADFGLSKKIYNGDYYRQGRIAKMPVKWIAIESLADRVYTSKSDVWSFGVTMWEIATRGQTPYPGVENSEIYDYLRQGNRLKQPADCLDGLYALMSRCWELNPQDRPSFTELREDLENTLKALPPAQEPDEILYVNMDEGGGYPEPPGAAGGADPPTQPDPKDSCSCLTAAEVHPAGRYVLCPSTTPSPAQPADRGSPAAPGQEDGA
The assay is described as follows: Inhibition of recombinant human AXL.

Assay [13] concerns the target Serine/threonine-protein kinase Nek6 (Homo sapiens, UniProt Q9HC98). The assay is described as follows: Inhibition of recombinant human NEK6.
Assay [14] addresses Dual specificity mitogen-activated protein kinase kinase 1 (Homo sapiens, UniProt Q02750). The assay is described as follows: Inhibition of wild type human MEK1.

What is called IC50 is the concentration that gives 50% inhibition.

Chain of RAC-alpha serine/threonine-protein kinase (P31749 whole entry, the tested form may be a part): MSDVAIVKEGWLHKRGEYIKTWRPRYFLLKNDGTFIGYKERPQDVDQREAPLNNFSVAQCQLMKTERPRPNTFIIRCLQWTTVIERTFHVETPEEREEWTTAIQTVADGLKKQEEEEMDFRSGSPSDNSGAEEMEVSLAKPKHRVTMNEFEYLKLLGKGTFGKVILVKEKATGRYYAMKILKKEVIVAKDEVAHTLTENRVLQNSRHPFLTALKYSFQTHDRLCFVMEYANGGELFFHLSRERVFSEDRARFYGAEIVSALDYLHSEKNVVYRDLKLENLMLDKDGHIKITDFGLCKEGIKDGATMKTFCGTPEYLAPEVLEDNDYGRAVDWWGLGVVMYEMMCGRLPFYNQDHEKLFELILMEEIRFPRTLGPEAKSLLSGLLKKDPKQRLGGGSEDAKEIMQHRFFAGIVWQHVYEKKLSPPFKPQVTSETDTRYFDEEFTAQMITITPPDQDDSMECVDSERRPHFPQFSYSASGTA
Chain of Hepatocyte growth factor receptor (P08581 whole entry): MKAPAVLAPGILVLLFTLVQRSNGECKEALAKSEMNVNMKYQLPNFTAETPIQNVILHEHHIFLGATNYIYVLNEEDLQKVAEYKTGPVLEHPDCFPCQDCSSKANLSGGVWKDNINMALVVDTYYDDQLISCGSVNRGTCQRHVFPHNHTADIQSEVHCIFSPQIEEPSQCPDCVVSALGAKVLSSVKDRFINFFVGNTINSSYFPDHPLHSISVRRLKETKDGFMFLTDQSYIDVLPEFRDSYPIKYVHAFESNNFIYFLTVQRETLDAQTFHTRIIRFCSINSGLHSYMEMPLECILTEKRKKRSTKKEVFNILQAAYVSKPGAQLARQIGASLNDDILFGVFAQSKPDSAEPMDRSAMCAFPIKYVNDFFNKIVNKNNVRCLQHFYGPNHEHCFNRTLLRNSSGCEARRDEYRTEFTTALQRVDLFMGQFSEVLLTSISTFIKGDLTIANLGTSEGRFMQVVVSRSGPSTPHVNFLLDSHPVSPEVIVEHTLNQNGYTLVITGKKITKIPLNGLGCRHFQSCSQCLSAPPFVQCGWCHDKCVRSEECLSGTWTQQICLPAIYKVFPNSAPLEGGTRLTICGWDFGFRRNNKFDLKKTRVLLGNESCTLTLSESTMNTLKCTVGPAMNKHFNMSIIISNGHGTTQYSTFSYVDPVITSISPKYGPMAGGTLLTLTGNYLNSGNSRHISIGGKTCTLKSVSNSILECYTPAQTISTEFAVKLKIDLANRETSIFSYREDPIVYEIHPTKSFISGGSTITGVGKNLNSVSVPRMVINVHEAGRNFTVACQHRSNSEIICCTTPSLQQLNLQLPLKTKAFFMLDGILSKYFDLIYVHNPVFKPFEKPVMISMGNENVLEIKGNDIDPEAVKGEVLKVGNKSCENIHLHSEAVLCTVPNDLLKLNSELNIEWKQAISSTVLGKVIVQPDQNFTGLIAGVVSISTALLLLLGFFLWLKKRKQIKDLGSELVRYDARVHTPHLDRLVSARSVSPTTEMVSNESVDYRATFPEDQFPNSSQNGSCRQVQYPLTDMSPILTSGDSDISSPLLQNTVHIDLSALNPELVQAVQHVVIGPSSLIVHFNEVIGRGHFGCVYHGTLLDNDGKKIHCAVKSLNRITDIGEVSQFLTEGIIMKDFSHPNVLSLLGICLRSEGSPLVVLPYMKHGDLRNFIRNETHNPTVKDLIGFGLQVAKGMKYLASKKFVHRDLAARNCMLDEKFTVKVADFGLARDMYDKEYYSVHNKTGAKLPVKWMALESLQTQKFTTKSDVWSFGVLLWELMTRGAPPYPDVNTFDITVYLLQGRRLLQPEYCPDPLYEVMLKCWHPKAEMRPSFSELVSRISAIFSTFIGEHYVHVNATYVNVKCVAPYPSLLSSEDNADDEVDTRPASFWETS
Chain of Focal adhesion kinase 1 (Q05397 whole entry): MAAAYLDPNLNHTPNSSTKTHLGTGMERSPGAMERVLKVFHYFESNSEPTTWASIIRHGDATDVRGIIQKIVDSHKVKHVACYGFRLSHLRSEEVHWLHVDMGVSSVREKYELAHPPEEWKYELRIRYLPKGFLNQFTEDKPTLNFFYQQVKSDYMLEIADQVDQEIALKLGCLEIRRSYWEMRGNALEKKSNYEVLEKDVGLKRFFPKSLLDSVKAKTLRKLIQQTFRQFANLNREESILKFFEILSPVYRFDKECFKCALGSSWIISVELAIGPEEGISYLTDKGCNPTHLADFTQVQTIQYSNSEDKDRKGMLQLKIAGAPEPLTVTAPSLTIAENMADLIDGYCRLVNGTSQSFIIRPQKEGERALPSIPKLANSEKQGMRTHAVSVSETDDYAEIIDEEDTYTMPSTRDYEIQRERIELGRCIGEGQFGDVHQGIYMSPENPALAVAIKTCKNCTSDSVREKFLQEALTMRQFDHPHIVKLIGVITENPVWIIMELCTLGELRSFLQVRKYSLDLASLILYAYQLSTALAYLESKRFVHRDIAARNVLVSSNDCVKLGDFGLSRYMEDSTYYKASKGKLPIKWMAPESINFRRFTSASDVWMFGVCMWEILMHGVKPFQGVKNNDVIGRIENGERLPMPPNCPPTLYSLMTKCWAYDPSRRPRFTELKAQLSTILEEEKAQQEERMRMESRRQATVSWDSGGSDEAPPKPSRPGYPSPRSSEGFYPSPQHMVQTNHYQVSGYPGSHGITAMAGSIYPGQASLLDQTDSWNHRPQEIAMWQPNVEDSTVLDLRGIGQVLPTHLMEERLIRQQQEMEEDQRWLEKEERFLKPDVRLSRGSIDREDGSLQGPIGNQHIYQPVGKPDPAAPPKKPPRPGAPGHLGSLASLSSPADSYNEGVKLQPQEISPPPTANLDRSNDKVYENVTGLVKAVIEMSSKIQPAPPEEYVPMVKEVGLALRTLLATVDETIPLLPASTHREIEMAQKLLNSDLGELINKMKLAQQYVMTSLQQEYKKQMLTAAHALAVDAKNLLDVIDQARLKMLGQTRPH
Chain of Serine/threonine-protein kinase Nek6 (Q9HC98 whole entry): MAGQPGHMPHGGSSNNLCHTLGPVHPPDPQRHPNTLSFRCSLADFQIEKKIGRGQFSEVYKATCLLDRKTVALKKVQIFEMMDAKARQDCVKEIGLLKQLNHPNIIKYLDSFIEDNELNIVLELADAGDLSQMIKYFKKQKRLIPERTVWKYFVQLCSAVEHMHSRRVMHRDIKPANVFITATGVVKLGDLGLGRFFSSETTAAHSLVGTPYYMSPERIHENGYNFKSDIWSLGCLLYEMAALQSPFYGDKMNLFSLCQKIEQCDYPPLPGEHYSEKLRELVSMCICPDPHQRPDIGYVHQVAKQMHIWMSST
Chain of Serine/threonine-protein kinase PLK1 (P53350 whole entry): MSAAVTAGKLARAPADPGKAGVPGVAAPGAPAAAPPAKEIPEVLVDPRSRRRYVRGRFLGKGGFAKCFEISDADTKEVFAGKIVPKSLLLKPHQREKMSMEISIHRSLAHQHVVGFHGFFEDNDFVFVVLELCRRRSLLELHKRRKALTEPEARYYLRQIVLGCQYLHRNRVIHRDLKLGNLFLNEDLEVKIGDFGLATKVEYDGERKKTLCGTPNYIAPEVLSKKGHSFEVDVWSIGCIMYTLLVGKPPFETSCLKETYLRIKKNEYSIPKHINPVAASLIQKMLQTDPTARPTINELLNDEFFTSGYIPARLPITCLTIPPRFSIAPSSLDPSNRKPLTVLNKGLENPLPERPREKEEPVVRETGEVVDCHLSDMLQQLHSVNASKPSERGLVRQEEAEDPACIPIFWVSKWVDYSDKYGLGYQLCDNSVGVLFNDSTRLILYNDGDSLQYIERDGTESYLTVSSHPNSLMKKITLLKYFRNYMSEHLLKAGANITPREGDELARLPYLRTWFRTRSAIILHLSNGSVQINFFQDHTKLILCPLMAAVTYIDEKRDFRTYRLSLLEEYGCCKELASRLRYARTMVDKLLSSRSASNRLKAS
Chain of Aurora kinase B (Q96GD4 whole entry): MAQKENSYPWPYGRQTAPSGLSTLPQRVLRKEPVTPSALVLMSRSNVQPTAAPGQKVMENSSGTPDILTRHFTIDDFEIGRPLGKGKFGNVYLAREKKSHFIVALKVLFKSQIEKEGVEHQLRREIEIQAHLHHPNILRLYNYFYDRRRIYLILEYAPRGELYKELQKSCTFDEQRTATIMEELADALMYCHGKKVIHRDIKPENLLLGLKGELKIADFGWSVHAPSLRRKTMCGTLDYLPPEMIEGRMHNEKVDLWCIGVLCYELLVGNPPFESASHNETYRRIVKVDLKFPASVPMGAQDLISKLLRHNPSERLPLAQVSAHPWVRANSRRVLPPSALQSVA
Chain of Dual specificity mitogen-activated protein kinase kinase 1 (Q02750 whole entry): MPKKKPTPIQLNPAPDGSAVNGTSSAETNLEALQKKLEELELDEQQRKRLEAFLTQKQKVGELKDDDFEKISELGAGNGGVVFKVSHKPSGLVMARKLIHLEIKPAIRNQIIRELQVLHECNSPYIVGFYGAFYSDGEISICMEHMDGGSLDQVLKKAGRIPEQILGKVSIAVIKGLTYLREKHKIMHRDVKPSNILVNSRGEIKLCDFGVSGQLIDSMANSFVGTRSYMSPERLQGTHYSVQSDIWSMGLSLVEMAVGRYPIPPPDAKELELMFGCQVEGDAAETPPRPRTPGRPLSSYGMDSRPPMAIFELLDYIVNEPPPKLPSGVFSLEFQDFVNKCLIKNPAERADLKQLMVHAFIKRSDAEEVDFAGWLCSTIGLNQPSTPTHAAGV

For `Cc1ccc(O)cc1CC[C@@H]1[C@H](O)CC[C@]2(C)[C@@H]([C@H](C)CCCC(C)C)CC[C@@H]12` [ASTROGORGIADIOL], the IC50 at Focal adhesion kinase 1 is 13.2 µM; in assay [1], over 100 µM; at Aurora kinase B, 25.1 µM; in [2], 7.55 µM; in assay [3] it was over 100 µM; in assay [4], 2.77 µM. Further, the IC50 in [5] is 78 µM; in assay [6], over 100 µM; in assay [7], over 100 µM; in assay [8], over 100 µM; in assay [9], 1.91 µM; in assay [10], over 100 µM. Further, the IC50 in [11] is 4.35 µM; in assay [12] it was 16.9 µM; in assay [13], over 100 µM; in assay [14], 48.9 µM.
For `Cc1ccc(O)cc1CC[C@@H]1C(=O)CC[C@]2(C)[C@@H]([C@H](C)CCCC(C)C)[C@@H](O)C[C@@H]12` [CALICOFEROL I], the IC50 (on Focal adhesion kinase 1; in [1]; at Aurora kinase B; in [2]; in [3]; in assay [4]) was over 100 µM throughout. Moreover, the half-inhibitory concentration (IC50) in assay [5], in assay [6], in assay [7], in [8], in assay [9] and in assay [10] was over 100 µM in each case. The IC50 in [11], in [12], in [13] and in [14] was over 100 µM each time.
For the molecule `Cc1ccc(O)cc1CC[C@@H]1[C@H](O)CC[C@]2(C)[C@@H]([C@H](C)CCCC(C)C)[C@@H](O)C[C@@H]12` [CALICOFEROL B], the IC50 (on Focal adhesion kinase 1; in [1]; at Aurora kinase B; in assay [2]; in assay [3]; in assay [4]) was over 100 µM in each case. The IC50 in [5], in [6], in [7], in assay [8], in assay [9] and in assay [10] was over 100 µM throughout. Also, the IC50 in assay [11], in assay [12], in assay [13] and in assay [14] was over 100 µM each time.
As to `Cc1ccc(O)cc1CC[C@@H]1C(=O)CC[C@]2(C)[C@@H]([C@H](C)/C=C/CC(C)C)CC[C@@H]12` [CALICOFEROL A], the IC50 on Focal adhesion kinase 1 was 9.92 µM; in assay [1], over 100 µM; at Aurora kinase B, over 100 µM; in [2] it was 4.16 µM; in assay [3], over 100 µM; in [4], 2.42 µM. Also, the IC50 was 47.6 µM in assay [5]; over 100 µM in assay [6]; over 100 µM in [7]; over 100 µM in assay [8]; 2.24 µM in [9]; over 100 µM in [10]. For the same molecule, the IC50 in [11] is 4.6 µM; in assay [12], 14.7 µM; in assay [13] it was over 100 µM; in assay [14] it was over 100 µM.
Regarding `C=C(CC[C@@H](C)[C@H]1CC[C@H]2[C@H](CCc3cc(O)ccc3C)[C@H](O)CC[C@]12C)C(C)C` [CALICOFEROL C], the IC50 (on Focal adhesion kinase 1; in [1]; at Aurora kinase B; in assay [2]; in [3]; in [4]) was over 100 µM each time. Besides, the IC50 in [5], in assay [6], in assay [7], in assay [8], in assay [9] and in assay [10] was over 100 µM throughout. The IC50 in assay [11], in assay [12], in [13] and in assay [14] was over 100 µM in each case.
Consider `C=C(CC[C@@H](C)[C@H]1CC[C@H]2[C@H](CCc3cc(O)ccc3C)C(=O)CC[C@]12C)C(C)C`, for which the IC50 at Focal adhesion kinase 1 was 10.7 µM; in assay [1] it was over 100 µM; at Aurora kinase B it was over 100 µM; in assay [2], 4.36 µM; in assay [3], over 100 µM; in [4], 2.3 µM. The IC50 in assay [5] is 27.5 µM; in [6], over 100 µM; in assay [7] it was over 100 µM; in [8], over 100 µM; in assay [9], 1.48 µM; in [10] it was 100 µM. In addition, the IC50 in assay [11] is 4.85 µM; in assay [12], 20.2 µM; in assay [13] it was over 100 µM; in assay [14], over 100 µM.
For `Cc1ccc(O)cc1CC[C@@H]1C(=O)CC[C@]2(C)[C@@H]([C@H](C)CCCC(C)C)CC[C@@H]12` [CALICOFEROL E], the IC50 is 9.63 µM at Focal adhesion kinase 1; over 100 µM in assay [1]; over 100 µM on Aurora kinase B; 4.73 µM in assay [2]; over 100 µM in assay [3]; 2.46 µM in [4]. Besides, the IC50 is over 100 µM in [6]; over 100 µM in [7]; over 100 µM in [8]; 2.17 µM in assay [9]; over 100 µM in assay [10]; 6.01 µM in assay [11]. Moreover, the IC50 in assay [12] was 32.6 µM; in assay [13] it was over 100 µM; in [14], over 100 µM.
In the case of `Cc1ccc(O)cc1CC[C@@H]1[C@@H](O)CC[C@]2(C)[C@@H]([C@H](C)/C=C/CC(C)C)CC[C@@H]12` (relative stereo), the IC50 is 16.9 µM at Focal adhesion kinase 1; over 100 µM in assay [1]; 38.1 µM on Aurora kinase B; 9.33 µM in [2]; over 100 µM in assay [3]; 3.16 µM in assay [4]. Also, the IC50 was over 100 µM in [6]; over 100 µM in [7]; over 100 µM in assay [8]; 2.4 µM in assay [9]; over 100 µM in [10]; 4.95 µM in [11]. The half-inhibitory concentration (IC50) is 21.9 µM in assay [12], over 100 µM in assay [13] and over 100 µM in [14].

For the origin of these results see ChEMBL document CHEMBL1921742, “9,10-secosteroids, protein kinase inhibitors from the Chinese gorgonian Astrogorgia sp” (Bioorg Med Chem, 2011).
